# Measured values reported in patent US8637310B2, “Use of a rock inhibitor to sustain primary human keratinocytes in a proliferative state” (The United States of America, as represented by the …, priority 2008, dated 2014).
# Legend:
# HPV31 [1] = assay: HPV DNA replication assay (Southern blot) in transfected primary keratinocytes, HPV31; format: cell-based, human papillomavirus; settings: 10 μM Y-27632; two and five days post-electroporation; FIG. 5
# Procedure: (§1) Cloned viral genomes were cleaved with restriction enzymes to separate viral and vector sequences. The genomes were religated at a concentration of 5 μg/ml to favor intramolecular circularization. Prior to electroporation, J2 feeder cells were removed from the keratinocytes by versene treatment and the HFKs were collected by trypsinization. HFKs (1×10^6) were electroporated with 2 μg of re-circularized viral genomic DNA using the Amaxa Nucleofector II electroporator and the Human Keratinocyte Nucleofector Kit. The Amaxa program optimized for cell survival was used according to the manufacturer's specifications. Cells were removed from the cuvettes immediately following electroporation, and seeded onto 10 cm plates containing irradiated feeder cells and F-medium, in the presence or absence of 10 μM Y-27632, as indicated. At various times post-transfection, low molecular weight DNA was isolated by a modified Hirt extraction procedure (Ustav et al., EMBO J. 10:449-457, 1991). For Southern blot analysis, the isolated DNA was linearized with EcoRI or BamHI, depending on cloning site for each viral genome, and DpnI, to digest any unreplicated input DNA. DNA fragments were separated by agarose gel electrophoresis followed by Southern blot hybridization. […]
# HPV31 [2] = assay: HPV31 genome copy number in CIN612 9E cells; format: cell-based, human papillomavirus; settings: 10 μM Y-27632, FIG. 8
# Procedure: The 9E and W12 (20863 clone) cell lines were cultured in F-media on irradiated J2 feeder cells. For the Y-27632 experiments they were cultured in F-medium with or without 10 μM Y-27632 and continually passed for the times indicated.
# as §1, with “DNA.” for “DNA. DNA fragments were separated by agarose gel electrophoresis followed by Southern blot hybridization.”
# foreskin keratinocytes = assay: Foreskin keratinocytes grown without fibroblast feeder cells, on plastic, serum-free medium; format: cell-based, human; settings: no fibroblast feeder cells
# Procedure: Culturing keratinocytes in the presence of fibroblast feeder cells increases the lifespan of keratinocytes (Fu et al., Cancer Res. 63: 7815-7824, 2003; Rheinwald et al., Mol. Cell Biol. 22: 5157-5172, 2002) and might contribute to the observed immortalization by Y-27632. Therefore, the effect of Y-27632 on foreskin keratinocytes grown in the absence of fibroblast feeder cells, cultured on plastic and in serum-free medium was analyzed. […] Therefore, co-culture with feeder fibroblasts is required in concert with ROCK inhibition to immortalize keratinocytes.
# p53 pathway = assay: Growth arrest assay (DNA damage response to 0.5 nM actinomycin D); format: cell-based, human; settings: 0.5 nM actinomycin D 24 hours; Y-27632-treated HFKs at P122; FIG. 12B
# Procedure: Keratinocytes (1-2×10^6) were seeded on a 10 cm plate. Forty-eight hours later they were treated with 0.5 nM actinomycin D for 24 hours. Protein extracts were prepared, as described above, and analyzed for p53 and p21 protein levels.
smiles,measurement,setting,value
"CC(N)[C@H]1CC[C@H](C(=O)Nc2ccncc2)CC1 (single isomer, unassigned; (+)) [Y-27632, (+)-trans-N-(4-Pyridyl)-4-(1-aminoethyl)-cyclohexanecarboxamide]",efficiency of HPV replication,HPV31 [1],greatly increased the efficiency of HPV replication up to five days
same,HPV31 copy number,HPV31 [2],remained constant
same,proliferation in the absence of feeder cells,foreskin keratinocytes,somewhat increased proliferation
same,bypass of senescence in the absence of feeder cells,foreskin keratinocytes; repeated experiments,did not bypass senescence
same,DNA damage response (p53 and p21 upregulation),p53 pathway,normal DNA damage response
